Source: patent publication US6517856B1, “Insecticide resistance assay” (priority 1998, dated 2003)
Where “and” joins values, the source holds several entries; their conditions need not be identical. Equal entries are not always repeated.

Tests used:
H. virescens = assay: Seven day mortality assay on neonates, CryIAc in artificial diet
Description: Insects were reared in the laboratory at 27±1° C. with a 14:10 (light:dark) cycle on a standard artificial diet (Gould et al., 1995; Rose et al., 1995). The Wake strain of H. virescens used was originally collected in 1986 from tobacco in Wake county, N.C. The YHD2 strain was originally collected as eggs from seven tobacco fields in Yadkin County, N.C., in July of 1988. The YHD2 larvae were reared each generation for about seven days from egg hatch on 1000 μg of Bt toxin CryIAc (MVP, commercial grade, >98.0% δ endotoxin, Mycogen Corporation, San Diego) per ml of artificial diet and then transferred to insecticide-free diet for the remainder of development.
Mortality data were analyzed using probit analysis (PROC PROBIT, SAS 1991).

H. zea = assay: Modified feeding disruption bioassay on MVP-hydrated meal pads, field strains; type: in vivo, Helicoverpa zea
Description: Trypan Blue (Direct Blue 14; Matheson Coleman and Bell, Norwood, Ohio) was blended with artificial diet, 20 mg dye per 100 ml diet. Blue diet aliquots were dispensed (100 μl per well) into 8-well microtiter plate strips (Nalge Nunc Int., Napersville, Ill.). The blue dye served as a marker of feeding on the assay diet, with larvae feeding on colored diet producing blue feces which were easily distinguished visually from feces derived from other food sources. Microtiter plate strips containing blue diet were frozen at −80° C. and lyophilized (Bench Top 6, Virtis, Gardiner, N.Y.; cold trap=−70° C., ˜200 mTorr, ambient temperature=23° C.) for a minimum of 24 h in order to form hydratable meal pads. Meal pads were stored in the dark in sealed plastic bags with desiccant prior to use.
Meal pads were hydrated with aqueous dilutions of the B. thuringiensis CryIAc δ-endotoxin formulation MVP (Mycogen, San Diego, Calif.) at least 1 h prior to the start of assays. Fresh diet aliquots (100 μl) consistently lost 78-84% of their water content by weight during the lyophilization process. Therefore, meal pads were hydrated with 80 μl of MVP in distilled water (treatments) or distilled water only (controls). The insecticide concentrations referenced throughout this paper are in μg MVP per ml of diet, i.e. the final concentration of insecticide in hydrated diet, which is 80% of the concentration of the solution used to hydrate the meal pads. Strip caps (Nunc) were cut into single caps in order to seal wells of the microtiter plate strips individually, which facilitated observation within wells while not allowing neighboring larvae to escape. In order to reduce condensation within the wells and provide larvae with air, caps were punctured twice with a #3 insect pin. Bioassays were conducted at 27±1° C. with a 14:10 (L:D) cycle, and blue fecal pellets were counted at 24 h. Neonates were used in all assays and were exposed to assay diets within 24 h of hatch. The results from each assay are taken from two replicates of each dose, with each replicate consisting of 24 larvae, one larva per well. Control (no dose) treatments were replicated three times. Dead larvae (defined as no movement for 30 s after prodding with a blunt probe) at the assay endpoint (24 h) were discarded and not included in the reported results. For each surviving larva, the number of fecal pellets produced was recorded. Serial dilutions of the MVP formulation were used for meal pad hydration, with separate dilution series prepared for each replicate.
Following 24 h exposure to diet containing a known concentration of MVP (Mycogen), a surviving larva was designated as a ‘feeder’ if it had produced more than two fecal pellets and as a ‘non-feeder’ otherwise. The cut-off value of two fecal pellets was adopted because this provided the clearest separation between species. Probit analyses were applied to the dichotomized fecal pellet counts in order to compare strains, between and within species, with respect to the feeding disruption response. A probit model was then used to relate the proportion of non-feeders to dose (on a log10 scale). Probit curves were fitted separately for each insect strain, and a NFC50 (non-feeding concentration50; log10 of the MVP concentration resulting in 50% non-feeders) and slope was obtained for H. zea. Also, probit curves were compared across species and among strains within species using PROC GENMOD with LINK=PROBIT (SAS 1993) on the data for all strains combined, and fitting effects for species, strains within species, log10 dose, as well as dose by species and dose by strain within species interactions.
Probit estimates of the proportion of feeders at the diagnostic concentration for each strain were used to predict the properties of an assay involving exposure of a small number, n, of larvae in individual wells for 24 h to diet containing a diagnostic concentration of the MVP formulation (final MVP concentration in diet 0.04 μg/ml). […]

[1] = system: Heliothis virescens neonates; assay: Feeding disruption bioassay on meal pads and diet cylinders (toxin incorporation, diet comparison); type: in vivo; settings: for percentage of the population producing >5 fecal pellets: Hv Washington neonates, 0.04 μg MVP per ml diet, 24 h
Description: Feeding disruption bioassays follow the method Examples 1-9. Bioassay diets contain 20 mg of the dye Trypan Blue (Direct Blue 14; Matheson Coleman and Bell, Norwood, Ohio) per 100 ml of diet. The blue dye serves as a marker of fecal origin, with only larvae feeding on blue diet producing blue feces. All bioassay results were taken from two replicates consisting of 24 insects per replicate. Dead larvae (defined as no movement for 30 s after prodding with a blunt probe) at the assay endpoint (24 h) were discarded and not included in the results in order to avoid interpreting mortality as a non-feeding assay response. Assays were conducted in clear 8-well microtiter plate strips (Nalge Nunc Int., Napersville, Ill.). Strip caps were separated with a scalpel to allow individual removal, facilitating observation of individual wells while not allowing neighboring larvae to escape. A #3 insect pin was used to puncture each cap twice, which permitted ventilation in order to reduce condensation within wells and provide larvae with air.
The original bioassay method was modified by substituting 100 μl meal pads (diameter=6 mm) for fresh diets. Except where noted, toxins were incorporated into the meal pads by hydrating with aqueous solutions containing appropriate concentrations of the B. thuringiensis CryIAc formulation MVP (Mycogen, San Diego, Calif.). Serial MVP dilutions were used in each assay, with dilution series for each replicate of a treatment made on different days. Hydration of 100 μl meal pads was by pipetting two 40 μl aliquots (water volume=80 μl) in order to prevent pads from floating in the wells, as discussed above. Lyophilized diet cylinders (400 μl) were hydrated to original wet weight as previously described with an aqueous MVP dilution, resulting in a final concentration of 0.04 μg MVP per ml diet. After 1 h, cylinders were divided into 3 sections with a scalpel and individual sections were placed in 8-well microtiter strips, 1 section per well. The feeding disruption bioassay was then used to assess the diffusion of MVP through the cylinder using one larva per cylinder section. All bioassay concentrations reported are final diet concentrations, and not those of solutions used to hydrate meal pads.

CryIAc: Bacillus thuringiensis CryIAc δ-endotoxin, commercial formulation MVP (Mycogen), >98.0% δ endotoxin
LC50 (H. virescens; Wake strain, neonates, seven day mortality): 0.0017 μg CryIAc/ml diet | LC50 (H. virescens; YHD2(female)×Wake(male) hybrid F1 larvae): 0.129 μg CryIAc/ml diet | LC50 (H. virescens; YHD2 strain, neonates, seven day mortality): 2952 μg CryIAc/ml diet and 2952.0 μg CryIAc/ml diet | pr, probability of a larva being a feeder, most conservative probit estimate (H. zea; H. zea strains, diagnostic concentration 0.04 μg/ml, 24 h): 0.80 | non-feeding response (0-2 fecal pellets) (H. zea; Hz Alachua neonates, 1200 μg MVP per ml diet, 24 h): 87.2% | feeding response (>2 fecal pellets) (H. zea; Hz Alachua, 0.04 μg MVP per ml diet, 24 h): 100% | percentage of neonates remaining feeders (>2 fecal pellets per larva) (H. zea; Hz Alachua, 1200 μg MVP per ml diet, 24 h): 12.8% | percentage producing 0-2 fecal pellets over 24 h (H. zea; Hz Baldwin neonates, 400 μg MVP per ml diet): 97.7% | non-feeding response (0-2 fecal pellets) (H. zea; Hz Barnwell neonates, 1200 μg MVP per ml diet, 24 h): 100% | feeding response (>2 fecal pellets) (H. zea; Hz Barnwell, 0.04 μg MVP per ml diet, 24 h): 100% | percentage producing 0-2 fecal pellets over 24 h (H. zea; Hz Harmon neonates, 400 μg MVP per ml diet): 89.5% | pr, feeding probability (H. zea; Hz Irwin (south Georgia), 0.04 μg MVP per ml diet, 24 h): 0.98 | non-feeding response (0-2 fecal pellets) (H. zea; Hz Nueces neonates, 1200 μg MVP per ml diet, 24 h): 100% | percentage producing 0-2 fecal pellets over 24 h (H. zea; Hz Washington neonates, 400 μg MVP per ml diet): 97.6% | feeding response (>2 fecal pellets) (H. zea; Hz Washington, 0.04 μg MVP per ml diet, 24 h): 80.4% | percentage of larvae producing >6 fecal pellets (H. zea; all H. zea larvae assayed, 1200 μg MVP per ml diet, 24 h): < 1% | percentage producing >15 fecal pellets (H. zea; each of Hz Alachua, Hz Barnwell, Hz Baldwin, 0.04 μg MVP per ml diet, 24 h): > 90% | percentage non-feeders (H. zea; each of three other H. zea field strains, 400 μg MVP per ml diet, 24 h): Less than 88.0% | non-feeding response (H. zea; three of the six H. zea susceptible field strains, 400 μg MVP per ml hydrated diet): > 89% | percentage of the population producing >5 fecal pellets ([1]; 100 μl meal pads): 10.4% | percentage of the population producing >5 fecal pellets ([1]; 400 μl cylinder, bottom section): 6.4% | percentage of the population producing >5 fecal pellets ([1]; 400 μl cylinder, middle section): 4.2% | percentage of the population producing >5 fecal pellets ([1]; 400 μl cylinder, top section): 6.3% | stability in diet during the lyophilization process ([1]; judged by Hv 97 bioassay, 0.04 μg MVP per ml diet incorporated before lyophilization): apparently stable
